According to the OligoGym collection:
Several values for one entry are separate records, joined by “and”; a condition that tells them apart may be missing. Equal entries are not always repeated. After the bases stand the sugars from the 5' end (letter, count) and the backbone: PS all phosphorothioate, else s phosphorothioate and o phosphodiester by linkage. Methylation of C is not given here. k = constrained ethyl (cEt); d = 2'-deoxy (DNA)

Target: MALAT1
Conditions: ASO, A431, 0.005 µM

## ACTCTGATCTGCGGCC (sugars k3 d10 k3, PS)
  target mRNA inhibition: 13%

## ACTGAAGAGCATTGGA (sugars k3 d10 k3, PS)
  target mRNA inhibition: 34%

## ACTGAATCCACTTCTG (sugars k3 d10 k3, PS)
  target mRNA inhibition: 35%

## ACTGATCTGACTTTGT (sugars k3 d10 k3, PS)
  target mRNA inhibition: 32%

## ACTGCAAGGTCTCATA (sugars k3 d10 k3, PS)
  target mRNA inhibition: -1%

## ACTGCATTTACTTGCC (sugars k3 d10 k3, PS)
  target mRNA inhibition: 8%

## ACTGCTTACAGATTTG (sugars k3 d10 k3, PS)
  target mRNA inhibition: 61% and 64%

## ACTGGGAATACTCTTC (sugars k3 d10 k3, PS)
  target mRNA inhibition: 28%

## ACTGGTACACCCAGTG (sugars k3 d10 k3, PS)
  target mRNA inhibition: -8%

## ACTTATCCCTAACATG (sugars k3 d10 k3, PS)
  target mRNA inhibition: 13%

## ACTTGAATGCAAACTA (sugars k3 d10 k3, PS)
  target mRNA inhibition: 11%

## AGAAATCGGAGCAGCA (sugars k3 d10 k3, PS)
  target mRNA inhibition: 9%

## AGAAGAATCCCCCCCA (sugars k3 d10 k3, PS)
  target mRNA inhibition: -13%

## AGAAGTCTCGGGCTGC (sugars k3 d10 k3, PS)
  target mRNA inhibition: 8%

## AGACAGACCTAAGGGA (sugars k3 d10 k3, PS)
  target mRNA inhibition: 21%

## AGACAGATTAGTAGTC (sugars k3 d10 k3, PS)
  target mRNA inhibition: -8%

## AGAGAAGAATCCCCCC (sugars k3 d10 k3, PS)
  target mRNA inhibition: 28%

## AGAGTGTTCGCAGACA (sugars k3 d10 k3, PS)
  target mRNA inhibition: 57%

## AGATACCTGTCTGAGG (sugars k3 d10 k3, PS)
  target mRNA inhibition: 12%

## AGATAGCAGCACAACT (sugars k3 d10 k3, PS)
  target mRNA inhibition: -5%

## AGATTCACTGAATCCA (sugars k3 d10 k3, PS)
  target mRNA inhibition: 6%

## AGATTTGAGCTGCAAA (sugars k3 d10 k3, PS)
  target mRNA inhibition: 11%

## AGCACCTGGGTCAGCT (sugars k3 d10 k3, PS)
  target mRNA inhibition: -5%

## AGCACGGGCTGTCTGC (sugars k3 d10 k3, PS)
  target mRNA inhibition: 7%

## AGCAGCACGGGCTGTC (sugars k3 d10 k3, PS)
  target mRNA inhibition: 10%

## AGCCTATAAGGACAGC (sugars k3 d10 k3, PS)
  target mRNA inhibition: 23%

## AGCCTTGCAGGGACGG (sugars k3 d10 k3, PS)
  target mRNA inhibition: -21%

## AGCCTTTATCACTCAG (sugars k3 d10 k3, PS)
  target mRNA inhibition: 35%

## AGCGAGTTCAAGTGGC (sugars k3 d10 k3, PS)
  target mRNA inhibition: 27%

## AGCTACCATCAGAAGA (sugars k3 d10 k3, PS)
  target mRNA inhibition: 34%

## AGCTATTAAAATTACG (sugars k3 d10 k3, PS)
  target mRNA inhibition: 22%

## AGCTCTATACTTTGAA (sugars k3 d10 k3, PS)
  target mRNA inhibition: 64%

## AGCTGCAGGCTATTAC (sugars k3 d10 k3, PS)
  target mRNA inhibition: 39%

## AGCTGTCAATTAATGC (sugars k3 d10 k3, PS)
  target mRNA inhibition: 10%

## AGCTTCATCAAACACT (sugars k3 d10 k3, PS)
  target mRNA inhibition: 3%

## AGCTTGGCCAAGTCTG (sugars k3 d10 k3, PS)
  target mRNA inhibition: 28%

## AGCTTGTTCACCTGTT (sugars k3 d10 k3, PS)
  target mRNA inhibition: 37%

## AGCTTTACCTTCTAAC (sugars k3 d10 k3, PS)
  target mRNA inhibition: 47%

## AGGAACAAGTCCTACA (sugars k3 d10 k3, PS)
  target mRNA inhibition: 36%

## AGGATTCTAGACAGAC (sugars k3 d10 k3, PS)
  target mRNA inhibition: 72% and 71%

## AGGTATGAGCTTCAGA (sugars k3 d10 k3, PS)
  target mRNA inhibition: 1%

## AGGTTACCATAAGTAA (sugars k3 d10 k3, PS)
  target mRNA inhibition: 10%

## AGGTTCTAGTTTTACT (sugars k3 d10 k3, PS)
  target mRNA inhibition: 16%

## AGTAGTTGTATTAATC (sugars k3 d10 k3, PS)
  target mRNA inhibition: 64% and 41%

## AGTCAAAGCAAAGACG (sugars k3 d10 k3, PS)
  target mRNA inhibition: 35%
